Laboratory results as given in US20070258912A1, “Use of Fluorescent Whitening Agents as Antimicrobials” (priority 2004, published 2007).
Like-named read-outs stand apart in the source and are kept apart here.

Key:
Type in all cases: cell-based
[1] = tested on: Actinomyces viscosus ATCC 43146; test: Substantivity on hydroxyapatite and growth inhibition; conditions: 500 ppm ethanolic solution; discs pretreated with artificial saliva; 6 and 24 hours at 37° C.; vs untreated control
Description: Hydroxyapatite discs are incubated in artificial saliva (German Dental Magazine DZZ 5/2002) for 4 hrs under stirring, rinsed in NaCl, dried over night, and then incubated in ethanolic solutions of the test substances. Then all treated discs are put in 12 well Nucleon surface titre plates (one disc per well), and Caso Broth inoculated with the test strain. The titre plates are incubated at 37° C., samples are taken after 6 and 24 hrs and the colony count is determined by plate count.

Klebsiella pneumoniae = test: MIC in the agar incorporation test; conditions: Mueller Hinton agar, 24 hours at 37° C.
Description: (§1) Determination of Minimum Inhibitory Concentration (MIC Values) in the Agar Incorporation Test
(§2) 1% stock solutions of the substances are prepared in an appropriate solvent and diluted in serial dilutions 1:2 (to yield end concentrations in the agar of 500-1.9 ppm). 0.3 ml of each dilution step is mixed with 15 ml of nutrient medium while the latter is still liquid. After the nutrient medium has solidified, 10 μl of each test strain in 0.85% NaCl solution are spotted onto the agar medium.
(§3) The plates are incubated at 37° C. for 24 hours and then the highest dilution (lowest concentration) of the test substance at which growth is no longer observable is determined.
(§4) Test Organisms: Staphylococcus aureus ATCC 6583 Staphylococcus epidermidis ATCC 12228 Corynebacterium xerosis ATCC 373 Propionibacterium acnes ATCC Escherichia coli ATCC 10536 Salmonella choleraesuis ATCC Klebsiella pneumoniae ATCC *Candida albicans ATCC 10231
(§5) *Aspergillus niger ATCC 6275

Corynebacterium xerosis [2] = test: MIC in the agar incorporation test
Description: as §1, §2, §3, §4, §5

Staphylococcus epidermis = test: MIC in the agar incorporation test
Description: as §1, §2, §3, §4, §5

Propionibacterium acnes = test: MIC in the agar incorporation test; conditions: Cutibacterium acnes, read-out: MIC Propionibacterium acnes
Description: as §1, §2, §3, §4, §5

Staphylococcus aureus [3] = test: MIC in the agar incorporation test
Description: as §1, §2, §3, §4, §5

[4] = tested on: Actinobacillus actinomycetemcomitans; test: MIC against oral microorganisms via broth dilution; conditions: Aggregatibacter actinomycetemcomitans, ATCC43718; broth dilution 0.94-15 ppm, 24 h aerobically with 10% CO2, ATCC 43718
Description: (§6) Determination of the Minimum Inhibition Concentration (MIC Value) Against Different Oral Microorganisms Via Broth Dilution
(§7) 1500 ppm stock solutions of the substances are prepared in ethanol and pipetted into the growth medium to yield concentrations between 0.94 and 15 ppm. Bacteria are taken from blood agar plates with cotton swabs and adjusted in the appropriate growth medium to yield an optical density corresponding to McFarland 0.5. This suspension is directly used in the case of F. nucleatum and P. nigrescens. For the other strains, the suspension is diluted 1:20. 0.1 ml of these bacterial suspensions are added to 2 ml of the substance solutions. After the incubation time, the tubes are assessed for growth (turbidity).
(§8) Test Organisms: *Actinobacillus actinomycetemcomitans ATCC 43718 *Stretococcus gordonii ATCC 10558 *Streptococcus mutans ATCC 33402 Actinomyces viscosus ATCC 43146 Fusobacterium nucleatum subsp. polymorphum ATCC 10953 Porphyromonas gingivalis ATCC 33277
(§9) Prevotella nigrescens ATCC 33563

Prevotella nigrescens = test: MIC against oral microorganisms via broth dilution
Description: as §6, §7, §8, §9

Porphyromnas gingivalis = test: MIC against oral microorganisms via broth dilution; conditions: read-out: MIC Porphyromnas gingivalis
Description: as §6, §7, §8, §9

[5] = tested on: Fusobacterium nucleatum subsp. polymorphum; test: MIC against oral microorganisms via broth dilution; conditions: ATCC10953, broth dilution 0.94-15 ppm, 7-10 days at 37° C. anaerobically, ATCC 10953, read-out: MIC Fusobacterium nucleatum subsp. polymorphum
Description: as §6, §7, §8, §9

Streptococcus mutans = test: MIC against oral microorganisms via broth dilution
Description: as §6, §7, §8, §9

Streptococcus gordonii = test: MIC against oral microorganisms via broth dilution
Description: as §6, §7, §8, §9

Actinomyces viscosus [6] = test: MIC against oral microorganisms via broth dilution
Description: as §6, §7, §8, §9

[7] = tested on: Corynebacterium minutissimum; test: MIC in the agar incorporation test; conditions: read-out: MIC Corynebacterium minutissimum
Escherichia coli [8] = test: Microbicidal activity (suspension test, plate count); conditions: 120 ppm, ATCC 10536; for Microbicidal activity Escherichia coli 120 ppm/5 min: 5 min contact at 22° C.; for Microbicidal activity Escherichia coli 120 ppm/30 min: 30 min contact at 22° C.
Description: (§10) Determination of Microbicidal Activity
(§11) 1 g stock solution with an appropriate concentration of test products are mixed with 8 g water and then inoculated with 1 ml of the selected test organisms. After a given contact period, aliquots are taken, inactivated and diluted. The number of surviving bacteria per ml incubation assay is determined by plate count. Proper inactivation by the inactivating medium used was checked each time.
(§12) Diluent: tryptone water for microorganisms
(§13) • (0.1% tryptone (Oxoid), 0.85% NaCl, deion. water) • deion. water for test substances • inactivating medium for detection of surviving microorganisms Growth medium: casein soybean peptone agar Inactivating Medium: tryptic soy broth special • (10% w/w Tween 80, 3% w/w Lecithine, 0.1% w/w L-Histidine, • 0.055% w/w Sodium thiosulfate) Test organisms: Staphylococcus aureus ATCC 6538 • Escherichia coli ATCC 10536 • Actinomyces viscosus ATCC 43146 • Corynebacterium xerosis ATCC 373 Test concentration: 120 ppm and 1200 ppm Contact times: 5 and 30 minutes at 22° C.
(§14) Incubation time: 24 h at 37° C.

Corynebacterium xerosis [9] = test: as above; conditions: 120 ppm, ATCC 373; for Microbicidal activity Corynebacterium xerosis 120 ppm/5 min: 5 min contact at 22° C.; for Microbicidal activity Corynebacterium xerosis 120 ppm/30 min: 30 min contact at 22° C.
Description: as §10, §11, §12, §13, §14

Staphylococcus aureus [10] = test: as above; conditions: 120 ppm, ATCC 6538; for Microbicidal activity Staphylococcus aureus 120 ppm/5 min: 5 min contact at 22° C.; for Microbicidal activity Staphylococcus aureus 120 ppm/30 min: 30 min contact at 22° C.
Description: as §10, §11, §12, §13, §14

Actinomyces viscosus [11] = test: as above; conditions: 120 ppm, ATCC 43146; for Microbicidal activity Actinomyces viscosus 120 ppm/5 min: 5 min contact at 22° C.; for Microbicidal activity Actinomyces viscosus 120 ppm/30 min: 30 min contact at 22° C.
Description: as §10, §11, §12, §13, §14

Salmonella choleraesuis = test: MIC in the agar incorporation test; conditions: Salmonella enterica, Mueller Hinton agar, 24 hours at 37° C.
Description: as §1, §2, §3, §4, §5

Escherichia coli [12] = test: MIC in the agar incorporation test; conditions: ATCC10536, agar incorporation, Mueller Hinton agar, 24 hours at 37° C., ATCC 10536, read-out: MIC Escherichia coli
Description: as §1, §2, §3, §4, §5

[13] = ATCC373, agar incorporation, Mueller Hinton agar, 24 hours at 37° C., ATCC 373, read-out: MIC Corynebacterium xerosis
[14] = ATCC12228, agar incorporation, Mueller Hinton agar, 24 hours at 37° C., ATCC 12228, read-out: MIC Staphylococcus epidermis
[15] = agar incorporation, Mueller Hinton agar, 24 hours at 37° C.
[16] = ATCC6583, agar incorporation, Mueller Hinton agar, 24 hours at 37° C., ATCC 6583, read-out: MIC Staphylococcus aureus
[17] = ATCC33563, broth dilution 0.94-15 ppm, Columbia bouillon, 7-10 days at 37° C. anaerobically, ATCC 33563, read-out: MIC Prevotella nigrescens
[18] = broth dilution 0.94-15 ppm, Columbia bouillon, 7-10 days at 37° C. anaerobically, ATCC 33277
[19] = ATCC33402, broth dilution 0.94-15 ppm, 24 h aerobically with 10% CO2, ATCC 33402, read-out: MIC Streptococcus mutans
[20] = ATCC10558, broth dilution 0.94-15 ppm, 24 h aerobically with 10% CO2, ATCC 10558, read-out: MIC Streptococcus gordonii
[21] = ATCC43146, broth dilution 0.94-15 ppm, 7-10 days at 37° C. anaerobically, ATCC 43146, read-out: MIC Actinomyces viscosus

| MIC (Klebsiella pneumoniae) [µg/mL] | MIC (Corynebacterium xerosis [2]; [13]) [µg/mL] | MIC (Staphylococcus epidermis; [14]) [µg/mL] | MIC (Propionibacterium acnes; [15]) [µg/mL] | MIC (Staphylococcus aureus [3]; [16]) [µg/mL] | MIC [4] [µg/mL] | MIC (Prevotella nigrescens; [17]) [µg/mL] | MIC (Porphyromnas gingivalis; [18]) [µg/mL] | MIC [5] [µg/mL] | MIC (Streptococcus mutans; [19]) [µg/mL] | MIC (Streptococcus gordonii; [20]) [µg/mL] | MIC (Actinomyces viscosus [6]; [21]) [µg/mL] | MIC [7, 15] [µg/mL] | SMILES | Growth inhibition of Actinomyces viscosus after adsorption on hydroxyapatite discs [1] | Microbicidal activity Escherichia coli 120 ppm/5 min (Escherichia coli [8]) [log reduction] | Microbicidal activity Escherichia coli 120 ppm/30 min (Escherichia coli [8]) [log reduction] | Microbicidal activity Corynebacterium xerosis 120 ppm/5 min (Corynebacterium xerosis [9]) [log reductions] | Microbicidal activity Corynebacterium xerosis 120 ppm/30 min (Corynebacterium xerosis [9]) [log reductions] | Microbicidal activity Staphylococcus aureus 120 ppm/5 min (Staphylococcus aureus [10]) [log reduction] | Microbicidal activity Staphylococcus aureus 120 ppm/30 min (Staphylococcus aureus [10]) [log reduction] | other results |
| --- | --- | --- | --- | --- | --- | --- | --- | --- | --- | --- | --- | --- | --- | --- | --- | --- | --- | --- | --- | --- | --- |
| 120 | 3.8 | 7.5 | 3.8 | 7.5 | 15 | 1.9 | 1.9 | 15 | 7.5 | 7.5 | 3.75 | 3.8 | CCN(CC)CCOc1ccccc1/C=C/c1ccc(/C=C/c2ccccc2OCCN(CC)CC)cc1 [formula 24] | growth inhibition | – | – | – | – | – | – | – |
| 25 | 3.1 | 6.3 | 12.5 | 6.3 | 15 | 1.9 | 3.8 | 3.8 | 3.8 | 7.5 | 3.8 | 6.3 | CN(C)CCCOc1ccccc1/C=C/c1ccc(/C=C/c2ccccc2OCCCN(C)C)cc1 [formula 26] | – | 4.5 | 5 | 2.9 | 5 | 0 | 4 | Microbicidal activity Actinomyces viscosus 120 ppm/5 min (Actinomyces viscosus [11]): 0 log reductions; Microbicidal activity Actinomyces viscosus 120 ppm/30 min (Actinomyces viscosus [11]): 3.7 log reductions; MIC (Salmonella choleraesuis): 200 µg/mL; MIC (Escherichia coli [12]): 200 µg/mL |
| 25 | 3.1 | 3.1 | 3.1 | 3.1 | 7.5 | 1.9 | 1.9 | 3.8 | 3.8 | 7.5 | 3.8 | 6.3 | Cc1ccc(/C=C/c2ccc(/C=C/c3cccc(OCCCN(C)C)c3)cc2)c(OCCN(C)C)c1 [formula 29] | – | 5 | 5 | 5 | 5 | 3 | 5 | Microbicidal activity Actinomyces viscosus 120 ppm/5 min (Actinomyces viscosus [11]): 2.5 log reductions; Microbicidal activity Actinomyces viscosus 120 ppm/30 min (Actinomyces viscosus [11]): 5 log reductions; MIC (Salmonella choleraesuis): 200 µg/mL; MIC (Escherichia coli [12]): 200 µg/mL |
| – | – | – | – | – | – | – | – | – | – | – | – | – | CC[N+](C)(C)CCCOc1ccccc1/C=C/c1ccc(-c2ccc(/C=C/c3ccccc3OCCC[N+](C)(C)CC)cc2)cc1 [formula 33] | growth inhibition | – | – | – | – | – | – | MIC (Corynebacterium xerosis [2]; ATCC373, 24 h, read-out: MIC Corynebacterium xerosis): 31.3 µg/mL; MIC (Staphylococcus epidermis; ATCC12228, 24 h, read-out: MIC Staphylococcus epidermis): 3.9 µg/mL; MIC (Propionibacterium acnes; 24 h): 3.9 µg/mL; MIC (Staphylococcus aureus [3]; ATCC6583, 24 h, read-out: MIC Staphylococcus aureus): 3.9 µg/mL; MIC (Prevotella nigrescens; ATCC33563, read-out: MIC Prevotella nigrescens): 3.75 µg/mL; MIC (Porphyromnas gingivalis): 15 µg/mL; MIC (Streptococcus mutans; ATCC33402, 24 h, read-out: MIC Streptococcus mutans): 1.88 µg/mL; MIC (Streptococcus gordonii; ATCC10558, 24 h, read-out: MIC Streptococcus gordonii): 3.75 µg/mL; MIC (Actinomyces viscosus [6]; ATCC43146, read-out: MIC Actinomyces viscosus): 3.8 µg/mL; MIC ([7]; 24 h): 7.8 µg/mL |
